# Source: patent publication US9995734B2, “Human T cell line assay for evaluating the immunologic identity of glatiramer acetate preparations” (Mylan Inc., priority 2013, dated 2018)
# Tested on: Donor 3 COP T-Cell Lines
# Assay: ATP proliferation assay (CellTiter Glo), Donor 3 COP T-cell lines, incl. reactivity to non-canonical GA peptides
# Type: cell-based, human
# Conditions: for ATP proliferation assay: Day 14; for Reactivity (proliferation), Mean: Day 54 of culture; for Proliferation (luminescent ATP assay), Mean: Day 66 of culture, 0 μg/mL 1881
substance,measurement,setting,value
glatiramer acetate [COP],ratio of proliferation after stimulation with COP to proliferation in response to the APC control,,greater than 3.0
same,ATP proliferation assay,"165-B6C, 10 μg/mL, control 14966",77564 RLU
same,ATP proliferation assay,"165-B10C, 10 μg/mL, control 10604",54779 RLU
same,ATP proliferation assay,"165-C4C, 10 μg/mL, control 23510",108089 RLU
same,ATP proliferation assay,"165-C7C, 10 μg/mL, control 12707",63491 RLU
same,ATP proliferation assay,"165-C9C, 10 μg/mL, control 22840",113199 RLU
same,response in ATP proliferation assay,"165-D2C, 165-C7C, 165-C4C, Day 39, three concentrations (Table 24)",responded comparably
same,ATP proliferation assay,"165-D2C, 10 μg/mL, control 12767",54895 RLU
same,ATP proliferation assay,"165-D3C, 10 μg/mL, control 18380",119241 RLU
same,ATP proliferation assay,"165-D11C, 10 μg/mL, control 13302",82759 RLU
same,ATP proliferation assay,"165-E3C, 10 μg/mL, control 12219",69893 RLU
same,ATP proliferation assay,"165-E9C, 10 μg/mL, control 22512",98168 RLU
same,ATP proliferation assay,"165-F3C, 10 μg/mL, control 13157",93437 RLU
same,ATP proliferation assay,"165-F4C, 10 μg/mL, control 13598",96289 RLU
same,ATP proliferation assay,"165-F6C, 10 μg/mL, control 23457",135516 RLU
same,ATP proliferation assay,"165-F9C, 10 μg/mL, control 19736",145768 RLU
same,"Reactivity (proliferation), Mean","T-cell line 165-B6C, 1 μg/mL antigen, No Antigen 2358",3878 RLU
same,"Reactivity (proliferation), Mean","T-cell line 165-B6C, 3 μg/mL antigen, No Antigen 2358",21455 RLU
same,"Mean, ATP proliferation assay","T-cell line 165-B6C, 3 μg/mL, Day 46, after 3 days",29815 RLU
same,"Reactivity (proliferation), Mean","T-cell line 165-B6C, 10 μg/mL antigen, No Antigen 2358",32197 RLU
same,"Mean, ATP proliferation assay","T-cell line 165-B6C, 10 μg/mL, Day 46, after 3 days",34502 RLU
same,"Reactivity (proliferation), Mean","T-cell line 165-B6C, 100 μg/mL antigen, No Antigen 2358",7969 RLU
same,"Mean, ATP proliferation assay","T-cell line 165-B6C, Day 32, 10 μg/mL",952 RLU
same,"Reactivity (proliferation), Mean","T-cell line 165-B10C, 1 μg/mL antigen, No Antigen 2234",2117 RLU
same,"Reactivity (proliferation), Mean","T-cell line 165-B10C, 3 μg/mL antigen, No Antigen 2234",2519 RLU
same,"Mean, ATP proliferation assay","T-cell line 165-B10C, 3 μg/mL, Day 46, after 3 days",8450 RLU
same,"Reactivity (proliferation), Mean","T-cell line 165-B10C, 10 μg/mL antigen, No Antigen 2234",6701 RLU
same,"Mean, ATP proliferation assay","T-cell line 165-B10C, 10 μg/mL, Day 46, after 3 days",19792 RLU
same,"Reactivity (proliferation), Mean","T-cell line 165-B10C, 100 μg/mL antigen, No Antigen 2234",6215 RLU
same,"Proliferation (luminescent ATP assay), Mean","T-cell line 165-C4C, 1 μg/mL antigen",2357
same,"Mean, ATP proliferation assay","T-cell line 165-C4C, 1 μg/mL, Day 39",11653
same,"Proliferation (luminescent ATP assay), Mean","T-cell line 165-C4C, 3 μg/mL antigen",7913
same,"Mean, ATP proliferation assay","T-cell line 165-C4C, 3 μg/mL, Day 39",28474
same,"Proliferation (luminescent ATP assay), Mean","T-cell line 165-C4C, 10 μg/mL antigen",74558
same,"Mean, ATP proliferation assay","T-cell line 165-C4C, 10 μg/mL, Day 39",28262
same,"Mean, ATP proliferation assay","T-cell line 165-C7C, 1 μg/mL, Day 39",3670
same,"Mean, ATP proliferation assay","T-cell line 165-C7C, 3 μg/mL, Day 39",16527
same,"Mean, ATP proliferation assay","T-cell line 165-C7C, 10 μg/mL, Day 39",40194
same,"Mean, ATP proliferation assay","T-cell line 165-D2C, 1 μg/mL, Day 39",3955
same,"Mean, ATP proliferation assay","T-cell line 165-D2C, 3 μg/mL, Day 39",7378
same,"Mean, ATP proliferation assay","T-cell line 165-D2C, 10 μg/mL, Day 39",14239
same,"Reactivity (proliferation), Mean","T-cell line 165-D3C, 1 μg/mL antigen, No Antigen 8319",22689 RLU
same,"Mean, ATP proliferation assay","T-cell line 165-D3C, 1 μg/mL, Day 46, after 3 days",1248 RLU
same,"Reactivity (proliferation), Mean","T-cell line 165-D3C, 3 μg/mL antigen, No Antigen 8319",50369 RLU
same,"Mean, ATP proliferation assay","T-cell line 165-D3C, 3 μg/mL, Day 46, after 3 days",79792 RLU
same,"Reactivity (proliferation), Mean","T-cell line 165-D3C, 10 μg/mL antigen, No Antigen 8319",52151 RLU
same,"Mean, ATP proliferation assay","T-cell line 165-D3C, 10 μg/mL, Day 46, after 3 days",86270 RLU
same,"Reactivity (proliferation), Mean","T-cell line 165-D3C, 100 μg/mL antigen, No Antigen 8319",10140 RLU
same,"Mean, ATP proliferation assay","T-cell line 165-D3C, Day 32, 10 μg/mL",3362 RLU
same,"Reactivity (proliferation), Mean","T-cell line 165-D11C, 1 μg/mL antigen, No Antigen 4571",3410 RLU
